In paper PMC11822212, “High-throughput screening identifies Aurora kinase B as a critical therapeutic target for Merkel cell carcinoma” (Nature Communications, 2025):
Like-named read-outs stand apart in the source and are kept apart here.

Columns and labels:
HEK293T cells = experiment: qHTS cell viability (CellTiter-Glo, 72 h; primary screen), control cell line; format: cell-based, human
[1] = system: six MCC cell lines and four control cell lines; experiment: qHTS cell viability, all 10 cell lines screened; format: cell-based
UISO cells (VN-MCC) = experiment: qHTS cell viability (CellTiter-Glo, 72 h; primary and follow-up small molecule screen); format: cell-based, human
[2] = system: control cell lines (HACAT, HEK293T, CRL-7250, NIH-3T3); experiment: qHTS cell viability, control cell lines as a group (mean AUC, Control.avg); format: cell-based
[3] = system: VN-MCC cell lines (MCC13, MCC26, UISO); experiment: qHTS cell viability, VN-MCC cell lines as a group (mean AUC, VN.MCC.avg); format: cell-based, human
MKL-2 cells (VP-MCC) = experiment: qHTS cell viability (CellTiter-Glo, 72 h; primary and follow-up small molecule screen); format: cell-based, human
MCC26 cells (VN-MCC) = experiment: as above; format: cell-based, human
WAGA cells (VP-MCC) = experiment: as above; format: cell-based, human
[4] = system: VP-MCC cell lines (WAGA, MKL-1, MKL-2); experiment: qHTS cell viability, VP-MCC cell lines as a group (mean AUC, VP.MCC.avg); format: cell-based, human
[5] = system: MCC cell lines (WAGA, MKL-1, MKL-2, MCC13, MCC26, UISO); experiment: qHTS cell viability, all six MCC cell lines as a group (mean AUC, MCC.avg); format: cell-based, human
HACAT cells = experiment: qHTS cell viability (CellTiter-Glo, 72 h; primary screen), control cell line; format: cell-based, human
MCC13 cells (VN-MCC) = experiment: qHTS cell viability (CellTiter-Glo, 72 h; primary and follow-up small molecule screen); format: cell-based, human
NIH-3T3 cells = experiment: qHTS cell viability (CellTiter-Glo, 72 h; primary screen), control cell line; format: cell-based, mouse
CRL-7250 cells = experiment: as above; format: cell-based
MKL-1 cells (VP-MCC) = experiment: qHTS cell viability (CellTiter-Glo, 72 h; primary and follow-up small molecule screen); format: cell-based, human
[6] = MIPE library, 11-point DRC, control cell line, sheet S2E
[7] = MIPE library, 11-point DRC, sheet S2E

How did the HEK293T_AUC (HEK293T cells) turn out when `CC[C@H]1C[C@@H]2C[C@H]3c4[nH]c5ccc(OC)cc5c4CCN(C2)[C@@H]13.Cl` [Ibogaine hydrochloride] was run?
Its HEK293T_AUC is 455.404.

What about the Control-MCC [1] of the same molecule?
The Control-MCC was 51.6972.

What about the UISO_AUC (UISO cells (VN-MCC)) of the same molecule?
Its UISO_AUC is 418.883.

And the Control_Avg_AUC [2]?
The Control_Avg_AUC was 479.316.

And the Control-VN-MCC [3]?
The Control-VN-MCC was 54.6174.

What about the VN-MCC_Avg_AUC [3] of the same molecule?
The VN-MCC_Avg_AUC was 424.699.

And the MKL2_AUC (MKL-2 cells (VP-MCC))?
Its MKL2_AUC is 442.315.

What about the MCC26_AUC (MCC26 cells (VN-MCC)) of the same molecule?
Its MCC26_AUC is 419.663.

What about the WAGA_AUC (WAGA cells (VP-MCC)) of the same molecule?
The WAGA_AUC was 409.341.

What about the Control-VP-MCC [4] of the same molecule?
Its Control-VP-MCC is 48.777.

What about the VP-MCC_Avg_AUC [4] of the same molecule?
The VP-MCC_Avg_AUC was 430.539.

And the MCC_Avg_AUC [5]?
Its MCC_Avg_AUC is 427.619.

And the HACAT_AUC (HACAT cells)?
The HACAT_AUC was 487.75.

What about the MCC13_AUC (MCC13 cells (VN-MCC)) of the same molecule?
The MCC13_AUC was 435.55.

What about the NIH3T3_AUC (NIH-3T3 cells) of the same molecule?
The NIH3T3_AUC was 484.099.

And the CRL7250_AUC (CRL-7250 cells)?
Its CRL7250_AUC is 490.013.

And the MKL1_AUC (MKL-1 cells (VP-MCC))?
The MKL1_AUC was 439.962.

Which HEK293T_AUC (HEK293T cells; [6]) does the source give for `CC1=C(/C=C/C(C)=C/C=C/C(C)=C\C(=O)O)C(C)(C)CCC1` [Isotretinoin] here?
Its HEK293T_AUC is 469.58.

And the HEK293T_AUC (HEK293T cells; area under the dose-response curve, HEK293T control cells, AUC<450 = reduced viability)?
Its HEK293T_AUC is 469.58.

And the Control-MCC ([1]; MIPE library, Control AUC minus MCC AUC (therapeutic window), sheet S2E)?
The Control-MCC was 26.3592.

What about the UISO_AUC (UISO cells (VN-MCC); [7]) of the same molecule?
The UISO_AUC was 453.203.

What about the UISO_AUC (UISO cells (VN-MCC); area under the dose-response curve, UISO cells, AUC<450 = reduced viability) of the same molecule?
The UISO_AUC was 453.203.

And the Control_Avg_AUC ([2]; MIPE library, mean AUC of control cell lines, sheet S2E)?
Its Control_Avg_AUC is 465.51.

And the Control-VN-MCC ([3]; MIPE library, Control AUC minus VN-MCC AUC (therapeutic window), sheet S2E)?
Its Control-VN-MCC is 2.118.

What about the VN-MCC_Avg_AUC ([3]; MIPE library, mean AUC of VN-MCC cell lines, sheet S2E) of the same molecule?
The VN-MCC_Avg_AUC was 463.393.

What about the MKL2_AUC (MKL-2 cells (VP-MCC); [7]) of the same molecule?
The MKL2_AUC was 402.656.

What about the MKL2_AUC (MKL-2 cells (VP-MCC); area under the dose-response curve, MKL-2 cells, AUC<450 = reduced viability) of the same molecule?
Its MKL2_AUC is 402.656.

What about the MCC26_AUC (MCC26 cells (VN-MCC); [7]) of the same molecule?
Its MCC26_AUC is 479.481.

What about the MCC26_AUC (MCC26 cells (VN-MCC); area under the dose-response curve, MCC26 cells, AUC<450 = reduced viability) of the same molecule?
Its MCC26_AUC is 479.481.

And the WAGA_AUC (WAGA cells (VP-MCC); [7])?
The WAGA_AUC was 423.315.

What about the WAGA_AUC (WAGA cells (VP-MCC); area under the dose-response curve, WAGA cells, AUC<450 = reduced viability) of the same molecule?
The WAGA_AUC was 423.315.

And the Control-VP-MCC ([4]; MIPE library, Control AUC minus VP-MCC AUC (therapeutic window), sheet S2E)?
The Control-VP-MCC was 50.6007.

What about the VP-MCC_Avg_AUC ([4]; MIPE library, mean AUC of VP-MCC cell lines, sheet S2E) of the same molecule?
The VP-MCC_Avg_AUC was 414.91.

What about the MCC_Avg_AUC ([5]; MIPE library, mean AUC of six MCC cell lines, sheet S2E) of the same molecule?
Its MCC_Avg_AUC is 439.151.

What about the HACAT_AUC (HACAT cells; [6]) of the same molecule?
The HACAT_AUC was 476.199.

What about the HACAT_AUC (HACAT cells; area under the dose-response curve, HACAT control cells, AUC<450 = reduced viability) of the same molecule?
Its HACAT_AUC is 476.199.

And the MCC13_AUC (MCC13 cells (VN-MCC); [7])?
The MCC13_AUC was 457.493.

And the MCC13_AUC (MCC13 cells (VN-MCC); area under the dose-response curve, MCC13 cells, AUC<450 = reduced viability)?
The MCC13_AUC was 457.493.

And the NIH3T3_AUC (NIH-3T3 cells; [6])?
The NIH3T3_AUC was 458.083.

What about the NIH3T3_AUC (NIH-3T3 cells; area under the dose-response curve, NIH3T3 control cells, AUC<450 = reduced viability) of the same molecule?
Its NIH3T3_AUC is 458.083.

And the CRL7250_AUC (CRL-7250 cells; [6])?
Its CRL7250_AUC is 458.179.

What about the CRL7250_AUC (CRL-7250 cells; area under the dose-response curve, CRL7250 control cells, AUC<450 = reduced viability) of the same molecule?
The CRL7250_AUC was 458.179.

What about the MKL1_AUC (MKL-1 cells (VP-MCC); [7]) of the same molecule?
Its MKL1_AUC is 418.758.

And the MKL1_AUC (MKL-1 cells (VP-MCC); area under the dose-response curve, MKL-1 cells, AUC<450 = reduced viability)?
The MKL1_AUC was 418.758.

Which results are given for `CN(CC1(C)CCCO1)S(=O)(=O)c1ccc(Cl)c(S(N)(=O)=O)c1` (stereo not shown) [Mefruside]?
HEK293T_AUC (HEK293T cells; NPC library, qHTS dose-response AUC, HEK293T control): 446.841; Control-MCC ([1]; NPC library, therapeutic window: Control avg AUC minus MCC avg AUC): 16.8852; UISO_AUC (UISO cells (VN-MCC); NPC library, qHTS dose-response AUC, UISO): 490.08; Control_Avg_AUC ([2]; NPC library, mean AUC of control cell lines): 467.688; VN-MCC_Avg_AUC ([3]; NPC library, mean AUC of VN-MCC cell lines): 490.65; Control-VN-MCC ([3]; NPC library, therapeutic window: Control avg AUC minus VN-MCC avg AUC): -22.9615; MKL2_AUC (MKL-2 cells (VP-MCC); NPC library, qHTS dose-response AUC, MKL2): 389.363; MCC26_AUC (MCC26 cells (VN-MCC); NPC library, qHTS dose-response AUC, MCC26): 494.694; WAGA_AUC (WAGA cells (VP-MCC); NPC library, qHTS dose-response AUC, WAGA): 408.321; VP-MCC_Avg_AUC ([4]; NPC library, mean AUC of VP-MCC cell lines): 410.957; Control-VP-MCC ([4]; NPC library, therapeutic window: Control avg AUC minus VP-MCC avg AUC): 56.732; MCC_Avg_AUC ([5]; NPC library, mean AUC of six MCC cell lines): 450.803; HACAT_AUC (HACAT cells; NPC library, qHTS dose-response AUC, HACAT control): 466.668; MCC13_AUC (MCC13 cells (VN-MCC); NPC library, qHTS dose-response AUC, MCC13): 487.176; NIH3T3_AUC (NIH-3T3 cells; NPC library, qHTS dose-response AUC, NIH3T3 control): 485.692; CRL7250_AUC (CRL-7250 cells; NPC library, qHTS dose-response AUC, CRL7250 control): 471.553; MKL1_AUC (MKL-1 cells (VP-MCC); NPC library, qHTS dose-response AUC, MKL1): 435.185
